In patent US5488049A, “Method of treating learning and memory disorders using benzothiadiazide derivatives as nootropic agents” (FIDIA - Georgetown Institute for the Neuro-Sciences, priority 1993, dated 1996):
“Also recorded” adds a separate entry of the source.

Assays:
rats [1] = experiment: Water maze: drug action on learning and retention in rats; type: in vivo, rat
Experimental: Rats (male, 250 g) were trained once a day in maze A (See FIG. 8B forced maze) for 2 consecutive days. The day of the experiment, after a first exposure to maze A, IDRA 21 (15 mg/kg) Aniracetam (500 mg/kg) or vehicle (cont) were administered per oral gavage and 30 min later the animals were exposed once again to Maze A. After 30 min of interatrial rest, rats were exposed to Maze B (see FIG. 8C open maze).
(§1) The water maze apparatus was adapted from Kant et al., (16), and consists of three concentric squares placed inside a 5 ft plastic pool (FIG. 6). The walls of the maze are 50 cm in height and are constructed from black opaque plastic to allow for tracking of the animal with an overhead camera. The alleys between the walls are 16 cm wide. In the center of each wall there is a removable doorway. The opening of doorways allows for the construction of mazes with an increasing number of potential error possibilities. (See diagram for Maze A and Maze B, FIG. 6). The maze is located in a room 10'×15' at constant temperature (18° C.) adjacent to the vivarium. The room is illuminated with overhead lights which also serve as spatial cues. Additional spatial cues are provided by the position of the investigator and a number of small white x's placed within specific locations upon the walls of the maze. The maze is filled with water (18°)C. to a depth of 25 cm.
(§2) Seven days prior to drug studies, rats were tested in Maze A (forced maze) on two consecutive days. Pretesting with the "forced" maze enabled the assessment of the animals' general motor, sensory and motivational abilities, and facilitated the exclusion of those animals unable to meet pretesting criteria. Performance was assessed by determining either swim time, errors committed, or path length measured with a computerized recording device. Errors are defined as whole body entry into alleys not leading directly to the exit platform (i.e., shaded portions in FIG. 6). Rats were excluded from the study if their swim path length and/or number of errors were two standard deviations above the mean […] of the entire group. During the first two trials, the rats were placed into the center of the maze and given a maximum of 180 secs to find the "exit platform" located at the "finish" (FIG. 6). The time required, the number of errors, and the path length were recorded for each trial. […] Rats meeting the criteria were randomly divided into groups. On the day of the experiment, a single trial was run (Maze A) in order to establish a baseline of performance. Following drug administration, the rats were again tested once on Maze A to establish a baseline of post-treatment performance. Following an additional interatrial interval of 30 min., the rats were tested on Maze B.

rats [2] = experiment: Water maze: drug action on alprazolam-disrupted learning behavior in rats; type: in vivo, rat; settings: IDRA 21 10 mg/kg os, 30 min pretreatment; alprazolam 1.5 mg/kg i.p.
Experimental: Rats (male 250 g b.w.) were trained two days, once a day, in maze A (See insert A). […] Rats were exposed to a new maze configuration (Maze B) in 4 successive trials 15, 30, 45, and 60 min after the i.p. injections.
as §1, §2
In these experiments, rats were trained in Maze B 15, 30, 45 and 60 min. after drug injection.

Structure (SMILES): CC1Nc2ccc(Cl)cc2S(=O)(=O)N1 (racemic) [IDRA 21, 7-chloro-3-methyl-3,4-dihydro-2H 1,2,4-benzothiadiazine S-S dioxide]
- efficacy in improving water maze performance of trained rats, vs aniracetam (rats [1]; 0.2 μmol icv vs aniracetam 1.8 μmol icv): at least as efficacious as aniracetam
- performance in water maze (errors and time, Maze B) (rats [1]; 15 mg/kg os): significantly improves the performance of rats, reducing the number of errors and the time interval in accomplishing the task in Maze B
- improvement of water maze performance (rats [1]; FIG. 8A, IDRA 21 15 mg/kg, Aniracetam 500 mg/kg oral): improve water performance in rats
- significance (P) of water maze performance vs control (rats [1]; IDRA 21 15 mg/kg, Aniracetam 500 mg/kg per oral gavage, at least 5 rats): < 0.05
- potency vs aniracetam in potentiating learning and enhancing cognitive performance (rats [1]; racemic form, naive rats and rats with alprazolam-disrupted learning): at least an order of magnitude more potent than aniracetam
- antagonism of alprazolam amnesic effect (rats [2]): reduces the amnesic effect of alprazolam; also recorded: attenuates the learning disruptive effect of Alprazolam
